Assay results taken from patent US20250281424A1 (New York Blood Center, Inc, priority 2020, published 2025).

Target: T1, human PF4 (Homo sapiens, UniProt P02776)
T1 construct: PF4 is a 70 amino acid, lysine-rich 7.8 kDa platelet-specific protein; made in house; host or cells: Escherichia coli BL21DE3 pLysS (pT7-7) and/or Drosophila S2 cells
T1 sequence (P02776 32-101): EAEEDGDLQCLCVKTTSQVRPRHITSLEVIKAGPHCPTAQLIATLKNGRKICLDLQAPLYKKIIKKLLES
Assay: Inhibition of PF4 tetramer formation (BS3 cross-linking, SDS-PAGE)
Assay type: biochemical
Conditions: for inhibition at 5 µM: 5 μM inhibitor; for inhibition at 5 µM / inhibition at 10 µM / inhibition at 1 µM / inhibition at 3 µM: read-out: % inhibition of PF4 tetramer formation at single concentration of inhibitor; for inhibition at 10 µM: 10 μM inhibitor (column A); for IC50: read-out: IC50 of PF4 tetramer formation inhibition; for inhibition at 1 µM: 1 μM inhibitor; for inhibition at 3 µM: 3 μM inhibitor (column A)
Procedure, shortened: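 Recombinant human wild-type PF4 (E. coli-expressed, heparin-purified), 10 μg/ml in PBS, incubated with compound 15 min at 37° C or 60 min at room temperature, then cross-linked with 0.2 mM BS3 for 30 min at room temperature. Reducing 12% SDS-PAGE; bands quantified as % tetramer, trimer, dimer, monomer versus compound-free control.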

SMILES | inhibition at 5 µM | inhibition at 10 µM | IC50 | inhibition at 1 µM | inhibition at 3 µM
C[C@H]1C[C@@H](C(=O)C2C(=O)c3ccc(C(=O)c4ccc5c(c4)C(=O)C(C(=O)[C@@H]4C[C@H](C)CN4C(=O)OC(C)(C)C)C5=O)cc3C2=O)N(C(=O)OC(C)(C)C)C1 (stereo partly drawn) [Example 132, tert-butyl (2S,4S)-2-(5-{2-[(2S,4S)-1-[(tert-butoxy)carbonyl]-4-methylpyrrolidine-2-carbonyl]-1,3-dioxo-2,3-dihydro-1H-indene-5-carbonyl}-1,3-dioxo-2,3-dihydro-1H-indene-2-carbonyl)-4-methylpyrrolidine-1-carboxylate] | 79% | 88% | 3.5 µM | – | –
O=C(NCc1ccccc1)C1C(=O)c2ccc(S(=O)(=O)c3ccc4c(c3)C(=O)C(C(=O)NCc3ccccc3)C4=O)cc2C1=O (stereo not shown) [Example 93, N-benzyl-5-{[2-(benzylcarbamoyl)-1,3-dioxo-2,3-dihydro-1H-inden-5-yl]sulfonyl}-1,3-dioxo-2,3-dihydro-1H-indene-2-carboxamide] | 70% | 75% | – | – | –
O=C(NC1CCCC1)C1C(=O)c2ccc(C(c3ccc4c(c3)C(=O)C(C(=O)NC3CCCC3)C4=O)(C(F)(F)F)C(F)(F)F)cc2C1=O (stereo not shown) [Example 109, N-cyclopentyl-5-{2-[2-(cyclopentylcarbamoyl)-1,3-dioxo-2,3-dihydro-1H-inden-5-yl]-1,1,1,3,3,3-hexafluoropropan-2-yl}-1,3-dioxo-2,3-dihydro-1H-indene-2-carboxamide] | 68% | 59% | – | – | –
COCCOCCN(CC(=O)C1C(=O)c2ccc(C(=O)c3ccc4c(c3)C(=O)C(C(=O)CN(CCOCCOC)C(=O)OC(C)(C)C)C4=O)cc2C1=O)C(=O)OC(C)(C)C (stereo not shown) [Example 391, tert-butyl N-[2-(5-{2-[2-(11,11-dimethyl-9-oxo-2,5,10-trioxa-8-azadodecan-8-yl)acetyl]-1,3-dioxo-2,3-dihydro-1H-indene-5-carbonyl}-1,3-dioxo-2,3-dihydro-1H-inden-2-yl)-2-oxoethyl]-N-[2-(2-methoxyethoxy)ethyl]carbamate] | – | – | – | 1% | 6%
O=C(CC1CCCC1)C1C(=O)c2ccc(S(=O)(=O)c3ccc4c(c3)C(=O)C(C(=O)CC3CCCC3)C4=O)cc2C1=O (stereo not shown) [Example 142, 2-(2-cyclopentylacetyl)-5-{[2-(2-cyclopentylacetyl)-1,3-dioxo-2,3-dihydro-1H-inden-5-yl]sulfonyl}-2,3-dihydro-1H-indene-1,3-dione] | 95% | 94% | 18 µM | – | –
O=C(c1ccc2c(c1)C(=O)C(C(=O)NCC1CCOC1)C2=O)c1ccc2c(c1)C(=O)C(C(=O)NCC1CCOC1)C2=O (stereo not shown) [Example 363, 5-(1,3-dioxo-2-{[(oxolan-3-yl)methyl]carbamoyl}-2,3-dihydro-1H-indene-5-carbonyl)-1,3-dioxo-N-[(oxolan-3-yl)methyl]-2,3-dihydro-1H-indene-2-carboxamide] | – | – | 3.96 µM | 29% | 63%
O=C(c1ccc2c(c1)C(=O)C(C(=O)NCc1ccc(F)cc1)C2=O)c1ccc2c(c1)C(=O)C(C(=O)NCc1ccc(F)cc1)C2=O (stereo not shown) [Example 26, 5,5′-carbonylbis(1,3-dioxo-indan-2-carboxylic acid ((4-fluorophenyl)methyl)-amide)] | 59% | 66% | 3.61 µM | – | –
O=C1c2ccc(S(=O)(=O)c3ccc4c(c3)C(=O)C(C(=O)C3CC3)C4=O)cc2C(=O)C1C(=O)C1CC1 (stereo not shown) [Example 402, 2-cyclopropanecarbonyl-5-[(2-cyclopropanecarbonyl-1,3-dioxo-2,3-dihydro-1H-inden-5-yl)sulfonyl]-2,3-dihydro-1H-indene-1,3-dione] | – | – | – | 24% | 28%
CCNC(=O)C1C(=O)c2ccc(Oc3ccc4c(c3)C(=O)C(C(=O)NCC)C4=O)cc2C1=O (stereo not shown) [Example 334, N-ethyl-5-{[2-(ethylcarbamoyl)-1,3-dioxo-2,3-dihydro-1H-inden-5-yl]oxy}-1,3-dioxo-2,3-dihydro-1H-indene-2-carboxamide] | – | – | – | 27% | 40%
